{"source": "PubChem BioAssay (NCI)", "assay_in_all_cases": "inhibition of tumour cell growth, NCI panel, 48 h", "key": {"HOP-62 NSCLC": {"tested_on": "HOP-62 NSCLC"}, "U251 CNS": {"tested_on": "U251 CNS"}, "SK-OV-3 ovarian": {"tested_on": "SK-OV-3 ovarian"}, "A549 NSCLC": {"tested_on": "A549 NSCLC"}, "SR leukemia": {"tested_on": "SR leukemia"}, "ACHN renal": {"tested_on": "ACHN renal"}, "UACC-257 melanoma": {"tested_on": "UACC-257 melanoma"}, "HS 578T breast": {"tested_on": "HS 578T breast"}}, "note": "“And” between values parts separate entries of the source, which are not always exact repeats. Equal entries are not always repeated.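 Compound exposure: 48 hours, 5 concentrations, 96-well plates. The concentration for 50% growth inhibition is given as GI50. Definition used: TGI = concentration required for complete inhibition of growth.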"}
{"smiles": "CC[C@]12C=CCN3CC[C@]4(C(=C(C(=O)OC)C1)Nc1cc5c(cc14)[C@@H]1[C@H](O5)[C@@H](O)[C@@]4(CC)CC(C(=O)OC)=C5Nc6ccccc6[C@@]56CCN1[C@@H]46)[C@@H]32", "values": [{"measurement": "GI50", "setting": "HOP-62 NSCLC", "result": 0.319, "unit": "µM"}, {"measurement": "TGI", "setting": "HOP-62 NSCLC", "result": "> 100", "unit": "µM"}, {"measurement": "GI50", "setting": "U251 CNS", "result": "0.467 µM and 0.318 µM"}, {"measurement": "GI50", "setting": "SK-OV-3 ovarian", "result": 1.09, "unit": "µM"}, {"measurement": "TGI", "setting": "SK-OV-3 ovarian", "result": 25, "unit": "µM"}, {"measurement": "GI50", "setting": "A549 NSCLC", "result": "1.2 µM and 0.875 µM"}, {"measurement": "TGI", "setting": "A549 NSCLC", "result": "12.7 µM and > 100 µM"}, {"measurement": "GI50", "setting": "SR leukemia", "result": "0.0922 µM and 0.146 µM"}, {"measurement": "TGI", "setting": "SR leukemia", "result": "25 µM and > 100 µM"}, {"measurement": "GI50", "setting": "ACHN renal", "result": "0.189 µM and 0.275 µM"}, {"measurement": "TGI", "setting": "ACHN renal", "result": "2.86 µM and 1.79 µM"}, {"measurement": "GI50", "setting": "UACC-257 melanoma", "result": "0.582 µM and 0.672 µM"}, {"measurement": "TGI", "setting": "UACC-257 melanoma", "result": "25 µM and 42.8 µM"}, {"measurement": "GI50", "setting": "HS 578T breast", "result": "0.344 µM and 0.218 µM"}, {"measurement": "TGI", "setting": "HS 578T breast", "result": "25 µM and > 100 µM"}]}
{"smiles": "N#CC1=C(N)N=C(N2CCOCC2)C(C#N)C12Nc1ccccc1S2", "note": "(centres undefined)", "values": [{"measurement": "GI50", "setting": "HOP-62 NSCLC", "result": 61.4, "unit": "µM"}, {"measurement": "TGI", "setting": "HOP-62 NSCLC", "result": "> 100", "unit": "µM"}, {"measurement": "GI50", "setting": "U251 CNS", "result": 27.8, "unit": "µM"}, {"measurement": "TGI", "setting": "U251 CNS", "result": "> 100", "unit": "µM"}, {"measurement": "GI50", "setting": "SK-OV-3 ovarian", "result": 24.1, "unit": "µM"}, {"measurement": "TGI", "setting": "SK-OV-3 ovarian", "result": "> 100", "unit": "µM"}, {"measurement": "GI50", "setting": "A549 NSCLC", "result": 33.3, "unit": "µM"}, {"measurement": "TGI", "setting": "A549 NSCLC", "result": "> 100", "unit": "µM"}, {"measurement": "GI50", "setting": "SR leukemia", "result": 9.31, "unit": "µM"}, {"measurement": "TGI", "setting": "SR leukemia", "result": "> 100", "unit": "µM"}, {"measurement": "GI50", "setting": "ACHN renal", "result": 21.8, "unit": "µM"}, {"measurement": "TGI", "setting": "ACHN renal", "result": 76, "unit": "µM"}, {"measurement": "GI50", "setting": "UACC-257 melanoma", "result": 28, "unit": "µM"}, {"measurement": "TGI", "setting": "UACC-257 melanoma", "result": 89.1, "unit": "µM"}, {"measurement": "GI50", "setting": "HS 578T breast", "result": 1.75, "unit": "µM"}, {"measurement": "TGI", "setting": "HS 578T breast", "result": 7.17, "unit": "µM"}]}
{"smiles": "COc1cc2c(Nc3ccc(-c4ccc(N)cc4)cc3)ncnc2c(OC)c1OC", "values": [{"measurement": "GI50", "setting": "HOP-62 NSCLC", "result": 24.8, "unit": "µM"}, {"measurement": "TGI", "setting": "HOP-62 NSCLC", "result": "> 100", "unit": "µM"}, {"measurement": "GI50", "setting": "U251 CNS", "result": 7.93, "unit": "µM"}, {"measurement": "TGI", "setting": "U251 CNS", "result": "> 100", "unit": "µM"}, {"measurement": "GI50", "setting": "SK-OV-3 ovarian", "result": 46.5, "unit": "µM"}, {"measurement": "TGI", "setting": "SK-OV-3 ovarian", "result": "> 100", "unit": "µM"}, {"measurement": "GI50", "setting": "A549 NSCLC", "result": 2.68, "unit": "µM"}, {"measurement": "TGI", "setting": "A549 NSCLC", "result": "> 100", "unit": "µM"}, {"measurement": "GI50", "setting": "SR leukemia", "result": 5.5, "unit": "µM"}, {"measurement": "TGI", "setting": "SR leukemia", "result": 84.9, "unit": "µM"}, {"measurement": "GI50", "setting": "ACHN renal", "result": 1.76, "unit": "µM"}, {"measurement": "TGI", "setting": "ACHN renal", "result": "> 100", "unit": "µM"}, {"measurement": "GI50", "setting": "UACC-257 melanoma", "result": 4.58, "unit": "µM"}, {"measurement": "TGI", "setting": "UACC-257 melanoma", "result": "> 100", "unit": "µM"}, {"measurement": "GI50", "setting": "HS 578T breast", "result": 11.5, "unit": "µM"}, {"measurement": "TGI", "setting": "HS 578T breast", "result": "> 68", "unit": "µM"}]}
{"smiles": "COc1ccccc1CNCCCN1C(=O)c2ccc3c4c(ccc(c24)C1=O)C(=O)N(CCCNCCCCNCCCN)C3=O", "values": [{"measurement": "GI50", "setting": "HOP-62 NSCLC", "result": 0.658, "unit": "µM"}, {"measurement": "TGI", "setting": "HOP-62 NSCLC", "result": 2.25, "unit": "µM"}, {"measurement": "GI50", "setting": "U251 CNS", "result": 0.339, "unit": "µM"}, {"measurement": "TGI", "setting": "U251 CNS", "result": 1.3, "unit": "µM"}, {"measurement": "GI50", "setting": "SK-OV-3 ovarian", "result": 1.95, "unit": "µM"}, {"measurement": "TGI", "setting": "SK-OV-3 ovarian", "result": 11.1, "unit": "µM"}, {"measurement": "GI50", "setting": "A549 NSCLC", "result": 0.581, "unit": "µM"}, {"measurement": "TGI", "setting": "A549 NSCLC", "result": 2.72, "unit": "µM"}, {"measurement": "GI50", "setting": "SR leukemia", "result": 0.322, "unit": "µM"}, {"measurement": "TGI", "setting": "SR leukemia", "result": "> 23.2", "unit": "µM"}, {"measurement": "GI50", "setting": "ACHN renal", "result": 0.747, "unit": "µM"}, {"measurement": "TGI", "setting": "ACHN renal", "result": 4.44, "unit": "µM"}, {"measurement": "GI50", "setting": "UACC-257 melanoma", "result": 0.176, "unit": "µM"}, {"measurement": "TGI", "setting": "UACC-257 melanoma", "result": 0.33, "unit": "µM"}, {"measurement": "GI50", "setting": "HS 578T breast", "result": 1.34, "unit": "µM"}, {"measurement": "TGI", "setting": "HS 578T breast", "result": 5.49, "unit": "µM"}]}
{"smiles": "CCOc1cc(Cl)c(C(C)NC(=O)c2cccc(OC)c2)cc1OCC", "note": "(centres undefined)", "values": [{"measurement": "GI50", "setting": "HOP-62 NSCLC", "result": 6.94, "unit": "µM"}, {"measurement": "TGI", "setting": "HOP-62 NSCLC", "result": "> 100", "unit": "µM"}, {"measurement": "GI50", "setting": "U251 CNS", "result": 8.18, "unit": "µM"}, {"measurement": "TGI", "setting": "U251 CNS", "result": "> 100", "unit": "µM"}, {"measurement": "GI50", "setting": "SK-OV-3 ovarian", "result": 15.6, "unit": "µM"}, {"measurement": "TGI", "setting": "SK-OV-3 ovarian", "result": "> 100", "unit": "µM"}, {"measurement": "GI50", "setting": "A549 NSCLC", "result": 8.59, "unit": "µM"}, {"measurement": "TGI", "setting": "A549 NSCLC", "result": "> 100", "unit": "µM"}, {"measurement": "GI50", "setting": "SR leukemia", "result": 3.92, "unit": "µM"}, {"measurement": "TGI", "setting": "SR leukemia", "result": "> 100", "unit": "µM"}, {"measurement": "GI50", "setting": "ACHN renal", "result": 20.1, "unit": "µM"}, {"measurement": "TGI", "setting": "ACHN renal", "result": "> 100", "unit": "µM"}, {"measurement": "GI50", "setting": "UACC-257 melanoma", "result": 37, "unit": "µM"}, {"measurement": "TGI", "setting": "UACC-257 melanoma", "result": "> 100", "unit": "µM"}, {"measurement": "GI50", "setting": "HS 578T breast", "result": 11.8, "unit": "µM"}, {"measurement": "TGI", "setting": "HS 578T breast", "result": "> 100", "unit": "µM"}]}
